Measurements published in ChEMBL document CHEMBL1641518, “Synthesis and biological evaluation of tubulysin D analogs related to stereoisomers of tubuvaline” (Bioorg Med Chem Lett, 2011).

Tests used:
HCT-116 = test: Cytotoxicity against human HCT116 cells after 72 hrs by MTT assay; type: functional, cell-based; settings: HCT-116, 72 h
MCF7 = test: Cytotoxicity against human MCF7 cells after 72 hrs by MTT assay; type: functional, cell-based; settings: MCF7, 72 h
HL-60 = test: Cytotoxicity against human HL60 cells after 72 hrs by MTT assay; type: functional, cell-based; settings: HL-60, 72 h
A549 = test: Cytotoxicity against human A549 cells after 72 hrs by MTT assay; type: functional, cell-based; settings: A549, 72 h
Tubulin = Tubulin (Sus scrofa, UniProt P02554+P02550); test: Inhibition of porcine brain tubulin polymerization by microtubule assembly assay

| SMILES | IC50 (HCT-116) | IC50 (MCF7) | IC50 (HL-60) | IC50 (A549) | IC50 (Tubulin) |
| --- | --- | --- | --- | --- | --- |
| CC[C@H](C)[C@H](NC(=O)[C@H]1CCCCN1C)C(=O)N(COC(=O)CC(C)C)[C@H](C[C@@H](OC(C)=O)c1nc(C(=O)N[C@@H](Cc2ccccc2)C[C@H](C)C(=O)O)cs1)C(C)C [TUBULYSIN D] | 0.0031 nM | 0.67 nM | 0.0047 nM | 0.013 nM | 1700 nM |
| CC[C@H](C)[C@H](NC(=O)[C@H]1CCCCN1C)C(=O)N[C@@H](C[C@@H](OC(C)=O)c1nc(C(=O)N[C@@H](Cc2ccccc2)C[C@H](C)C(=O)O)cs1)C(C)C [13-EPI-TUBULYSIN D] | 920 nM | 240 nM | 98 nM | 1200 nM | 1700 nM |
| CC[C@H](C)[C@H](NC(=O)[C@H]1CCCCN1C)C(=O)N[C@H](C[C@H](OC(C)=O)c1nc(C(=O)N[C@@H](Cc2ccccc2)C[C@H](C)C(=O)O)cs1)C(C)C [11-EPI-TUBULYSIN D] | 13 nM | 280 nM | 3.1 nM | 43 nM | 1400 nM |
| CC[C@H](C)[C@H](NC(=O)[C@H]1CCCCN1C)C(=O)N[C@@H](C[C@H](OC(C)=O)c1nc(C(=O)N[C@@H](Cc2ccccc2)C[C@H](C)C(=O)O)cs1)C(C)C | > 10000 nM | > 10000 nM | 3600 nM | > 10000 nM | 6300 nM |
| CC[C@]1(O)C[C@@H]2CN(CCc3c([nH]c4ccccc34)[C@@](C(=O)OC)(c3cc4c(cc3OC)N(C)[C@H]3[C@@](O)(C(=O)OC)[C@H](OC(C)=O)[C@]5(CC)C=CCN6CC[C@]43[C@@H]65)C2)C1 [VINBLASTINE] | 27 nM | 0.79 nM | 1 nM | 17 nM | – |
